Assay results taken from the METLIN SMRT retention time set (Domingo-Almenara et al. 2019).

Assay: gradient 5% acetonitrile 3 min, to 50% in 2 min, to 85% in 15 min, held 3 min, 100 µL/min
Conditions: column: Zorbax Extend-C18 2.1 x 50 mm; eluents: water / acetonitrile, 0.1% formic acid
How it was run: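 Retention times of pure standards were taken from adduct peaks that were selected by computer and manually inspected. Over 3 months, mixtures of ~100 molecules were run by HPLC–quadrupole time-of-flight mass spectrometry in positive and negative ionization mode. The Zorbax Extend-C18 column (2.1 × 50 mm, 1.8 μm) ran at 100 μL/min in water and acetonitrile, each containing 0.1% formic acid, with 40 μL dead volume and 900 μL dwell volume.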

| RP-LC retention time | SMILES |
| --- | --- |
| 719 s | CCc1ccc(NS(=O)(=O)c2cc3[nH]c(=O)[nH]c3cc2C)cc1 |
| 592 s | CCOCCCNC(=O)c1csc(-c2ccnc(N3CCCC3)c2)n1 |
| 1160 s | CSc1ccc(-c2nc3cnccn3c2Nc2ccc(C(C)C)cc2)cc1 |
| 968 s | Cc1cc(C)cc(N2C(=O)CN(S(=O)(=O)c3ccccc3)CC2(C)C(=O)NC2CCCC2)c1 (stereo not drawn) |
| 1100 s | O=C(NCc1ccc(F)c(Cl)c1)C1CCCN(c2nccnc2Sc2ccccc2)C1 (stereo not drawn) |
| 635 s | Cc1ccc(N2C(=O)CCS2(=O)=O)cc1S(=O)(=O)N1CCN(c2ccccn2)CC1 |
| 895 s | COc1ccc(CCc2nc3nccc(-c4cc(OC)c(OC)c(OC)c4)n3n2)cc1 |
| 1040 s | Cc1ccc(NC(=O)C2CCC(=O)N2S(=O)(=O)c2ccc(C)c(C)c2)cc1C (stereo not drawn) |
| 957 s | Cc1ccc(N2CC(c3noc(-c4ccc5c(c4)OCO5)n3)CC2=O)cc1 (stereo not drawn) |
| 929 s | CCCn1c(=O)sc2cc(S(=O)(=O)N3CCC(C(=O)Nc4ccc(CC)cc4)CC3)ccc21 |
| 741 s | CCOC(=O)c1cccc(NC(=O)Cn2c(=O)c(CCC(=O)NC)nc3ccccc32)c1 |
| 767 s | COC(=O)c1cc(Cl)c(NC(=O)C(C)C)cc1OC |
| 871 s | CN1C(=O)c2cc(S(=O)(=O)NCc3ccccc3F)ccc2Oc2cccnc21 |
| 1050 s | COc1cc(OC)cc(-n2nnc(-c3nsc(Nc4ccccc4OC)n3)c2C)c1 |
| 574 s | COc1cccc(CN2CCn3c(nnc3[C@@H]3C[C@@H](O)CN3C)C2)c1 |
| 800 s | COC(=O)c1c(C)[nH]c(C(=O)N2CCCC(C(=O)NCCCc3ccccc3)C2)c1C (stereo not drawn) |
| 652 s | Cc1nc2n(c(=O)c1C)CCN2CC(=O)NCc1ccccc1Cl |
| 718 s | Cc1cc(=O)n(CC(=O)Nc2ccccc2Cl)c(N2CCCCC2)n1 |
| 899 s | CCc1nc2onc(C)c2c(=O)n1CC(=O)NCCC1=CCCCC1 |
| 678 s | Cc1ccc(NC(=O)Cn2cnc3nc(N4CCC(C(=O)NC5CC5)CC4)sc3c2=O)c(C)c1 |
| 677 s | Cc1c(C(C)(C(=O)O)c2c(C)n(C)c3ccccc23)c2ccccc2n1C |
| 879 s | CN1C(=O)c2cc(S(=O)(=O)Nc3cccc(F)c3)ccc2Oc2cccnc21 |

| RP-LC retention time | SMILES |
| --- | --- |
| 797 s | CN1C(=O)CCC2(CNC(=O)Nc3ccccc3F)CCCC=C12 (stereo not drawn) |
| 1150 s | COc1ccccc1NS(=O)(=O)c1c(C)nn(-c2ccc(-c3ccc(C)cc3)nn2)c1C |
| 615 s | Cc1ccccc1OCC(=O)NC1CCN(Cc2c(C)noc2C)CC1 |
| 903 s | CCOc1ccccc1NC(=O)C1CCc2nc(N3CCCCC3)ncc2C1 (stereo not drawn) |
| 849 s | O=C(NC1CCCC1)c1ccc(-c2cccs2)nc1 |
| 1320 s | CCc1ccc(OCc2nc(C)c(C(=O)Nc3nc(-c4ccc(F)cc4)cs3)s2)cc1 |
| 870 s | Cc1ccc(NC(=O)Nc2ccc3nnc(C4CCC4)n3c2)cc1Cl |
| 808 s | CCC(C)N(CC(=O)N(Cc1ccco1)CC1CCCO1)C(=O)c1ccc(OC)cc1 (stereo not drawn) |
| 720 s | CC1CCN(S(=O)(=O)N2CCC(C(=O)N3CCC(Cc4nncn4C(C)C)CC3)CC2)CC1 |
| 798 s | O=C(C1CCN(c2nccnc2Sc2ccccc2)CC1)N1CCOCC1 |
| 731 s | CC1CCCN(C(=O)C2CCN(S(=O)(=O)c3ccc4c(c3)CCCC(=O)N4)CC2)C1 (stereo not drawn) |
| 693 s | O=C(NCCN1CCC(Cc2ccccc2)CC1)c1ccc2c(c1)NC(=O)C1CCCCN21 (stereo not drawn) |
| 903 s | COC(=O)C1=CN(c2cc(Cl)c(OC)cc2OC)c2ccccc2S1(=O)=O |
| 1190 s | CCCN(C(C)=O)c1nc(-c2ccc(C)cc2)cs1 |
| 590 s | Fc1ccccc1CN1CCc2nc(N3CCOCC3)ncc2C1 |
| 566 s | Cc1nnc(C2CC3(CCN(CC(C)C)CC3)CN2Cc2ccccc2)o1 (stereo not drawn) |
| 997 s | CCC(=O)NC1Cc2ccccc2C(c2ccccc2)C1 (stereo not drawn) |
| 830 s | COc1ccc(-c2nc3cnccn3c2Nc2ccc(Cl)cc2)cc1OC |
| 744 s | CN1C(=O)CC[C@]2(C(=O)NCc3cccc(C(F)(F)F)c3)CCCC[C@@H]12 |
| 637 s | O=C(NCC(F)(F)F)C1CCN(S(=O)(=O)CCN2C(=O)CCCC2=O)CC1 |
| 1010 s | Cc1ccc(C)c(C(=O)Nc2cccn3nc(C(C)C)nc23)c1 |
| 714 s | O=C(NC1CCCCCC1)c1ccc(Cn2cncn2)cc1 |

| RP-LC retention time | SMILES |
| --- | --- |
| 620 s | Cc1cc(C)n(-c2ccc(N3CCN(C(=O)c4ccc(S(N)(=O)=O)cc4)CC3)nn2)n1 |
| 686 s | Cc1cccc(Sc2nccnc2N2CCCC(C(=O)NCCN3CCOCC3)C2)c1 (stereo not drawn) |
| 782 s | CCN(C(=O)C1CCCN1S(=O)(=O)c1cc2c(cc1C)NC(=O)CO2)c1ccc(OC)cc1 (stereo not drawn) |
| 1050 s | CCOc1cccc(-c2noc(Cn3c(=O)n(-c4ccc(F)cc4)c(=O)c4sccc43)n2)c1 |
| 595 s | CCN1C(=O)c2ccccc2S(=O)c2ccc(C(=O)N3CCN(c4ccccn4)CC3)cc21 (stereo not drawn) |
| 909 s | O=C(Cn1ccn2nc(-c3ccc(F)cc3)c(CO)c2c1=O)Nc1ccc(Cl)cc1F |
| 594 s | COC(=O)c1c(C)[nH]c(C(=O)N2CCC(CC(=O)NCCN3CCCCCC3)CC2)c1C |
| 618 s | CNC(=O)CSc1nnc(N2CCN(C(=O)Cc3ccc([N+](=O)[O-])cc3)CC2)s1 |
| 663 s | C=CCNC(=O)Cc1c(C)n(C)c2nc(-c3ccccc3)nn2c1=O |
| 1020 s | COc1cccc(-c2nnc(Cc3nc(-c4ccccc4F)no3)o2)c1 |
| 970 s | COc1cccc(Cn2c(C(=O)N3CCC(C(=O)NCc4ccc(C)o4)CC3)cc3ccsc32)c1 |
| 950 s | O=S(=O)(c1ccccc1Cl)N1CCC(c2noc(COCC3CC3)n2)CC1 |
| 795 s | COc1cc(NC(=O)Cn2nc3c(N4CCSCC4)nccn3c2=O)cc(OC)c1 |
| 1010 s | COc1cccc(-c2noc(Cc3nnc(-c4ccc(C)c(F)c4)o3)n2)c1OC |
| 592 s | CN(Cc1cc(Cl)ccc1F)C1CCc2nnc(C3CCOCC3)n2CC1 (stereo not drawn) |
| 588 s | CCN(CC)C(=O)c1ccc2c(c1)N(Cc1ccc(C)cc1)C(=O)CO2 |
| 679 s | COCc1noc([C@@H]2CC(F)(F)CN2C(=O)c2conc2C)n1 |
| 674 s | O=C(Nc1c(-c2ccc(F)cc2)nc2ccccn12)c1cccc(F)c1 |
| 825 s | COc1ccc(C(=O)COc2ccccc2OC)cc1 |
| 620 s | CC(=O)N1c2ccc(S(=O)(=O)N3CCC(c4ccncc4)CC3)cc2CC1C (stereo not drawn) |
| 706 s | O=C(Cn1c(-c2cccs2)cc2cc(Cl)ccc21)NCCN1CCOCC1 |
| 695 s | COc1ccc(N2C=C(C(=O)N3CCOCC3)S(=O)(=O)c3ccccc32)cc1OC |

| RP-LC retention time | SMILES |
| --- | --- |
| 899 s | CCn1c(=O)sc2cc(S(=O)(=O)N3CCC(C(=O)Nc4ccccc4F)CC3)ccc21 |
| 770 s | COc1cc(OC)c(OC)cc1CC1C(=O)Nc2ccccc21 (stereo not drawn) |
| 803 s | Cc1nc(-c2noc(-c3ccccc3)n2)cn1CC(=O)Nc1ccc2c(c1)OCO2 |
| 651 s | COCCCNC(=O)C1CCN(C(=O)c2ncn3c2COC(c2ccc(OC)cc2)C3)CC1 (stereo not drawn) |
| 959 s | CCCn1c(=O)c(N2CCC(NC(=O)NCc3cccc(F)c3)CC2)nc2ccccc21 |
| 986 s | Cc1ccc(NS(=O)(=O)c2cn(CC(C)C)c3ncccc23)cc1 |
| 583 s | CCn1c(=O)n(CC)c2cc(N3CCCC3)c(NC(=O)CC(=O)OC)cc21 |
| 681 s | CCCn1cnc2c(Sc3c([N+](=O)[O-])ncn3C)nc(N)nc21 |
| 618 s | Cn1cc(-c2cc3n(n2)CCCN3C(=O)CCC(=O)NCCN2CCOCC2)c2ccccc21 |
| 769 s | CCc1ccc(NC(=O)N2CCC(N3CCN(Cc4ccc(F)cc4)C(=O)C3=O)CC2)cc1 |
| 1180 s | Cc1cccc(OCc2nc(-c3ccc4oc(C)nc4c3)no2)c1 |
| 799 s | O=C(Nc1ccc(Cl)cc1)N1CCC(N2CCN(Cc3ccc(F)cc3)C(=O)C2=O)CC1 |
| 1110 s | Cc1ccc(-c2noc(CN3N=NC4C(=O)N(c5ccc6c(c5)CCC6)C(=O)C43)n2)cc1 (stereo not drawn) |
| 920 s | COc1ccc(NC(=O)c2cc3ccccc3c(=O)o2)c([N+](=O)[O-])c1 |
| 908 s | CCC(=O)N(C1CCOCC1)C1CCN(S(=O)(=O)c2cc(C)ccc2C)CC1 |
| 869 s | CCCn1cc(S(=O)(=O)Nc2ccccc2F)c2cccnc21 |
| 649 s | CCOc1ccc(NC(=O)COc2cc(C)nc(N3CCCC3)n2)cc1 |
| 599 s | CCOC(=O)C1=C(CN2CCC(N3CCCCC3)CC2)NC(=O)NC1c1ccc(Cl)cc1 (stereo not drawn) |
| 716 s | COCCCNC(=O)c1nn(-c2ccc(Cl)cc2)c2c(=O)n(C)cnc12 |
| 640 s | O=C(Nc1ccc(F)cc1)N1C[C@H]2C[C@H](C1)[C@H]1CCCC(=O)N1C2 |
| 580 s | CN1C(=O)c2cc(C(=O)NCCN3CCCC3)nn2CC1(C)C(=O)NCc1ccc(F)cc1 (stereo not drawn) |
| 575 s | O=C(NCC1CCCO1)c1ccc2ncnc(N3CCCC3)c2c1 (stereo not drawn) |
